From patent US5589510A, “Method for inhibiting retroviral infection by administering a naphthalenesulfonic acid compound” (priority 1995, dated 1996)
Read-outs that look alike come from different tables or passages of the source.

Columns and labels:
[1] = LD50, intravenous, mice; format: in vivo; details: mouse, in vivo, female mice, mortalities within 1 week
Experimental: The test material was administered intravenously to 5 female mice in five increasing doses. Mortalities were recorded within 1 week, and the LD50 was determined with the aid of statistical calculations.

[2] = test system: TA98, TA1535, TA1537, TA1538, TA100 and W2P2uvr; assay: Ames Test (in the presence of S9); format: cell-based, Salmonella typhimurium; details: for Ames Test, specific mutagenic activity: the higher the value, the higher the mutagenicity
Text: Six Salmonella typhimuriumstrai strains, TA98, TA1535, TA1537, TA1538, TA100 and W2P2uvr were used in this experiment.

[3] = test system: HIV-1 RF; assay: Antiviral assay, Experimental Protocol I (compound added after infection); format: cell-based; details: Human immunodeficiency virus 1, 240 h, p24 ELISA, read-out: % Inhibition (after day 10); for inhibition at 1.25 µg/mL: 1.25 μg/ml; for inhibition at 2.5 µg/mL: 2.5 μg/ml; for inhibition at 5 µg/mL: 5 μg/ml; for inhibition at 0.6 µg/mL: 0.6 μg/ml
Experimental: HIV-1 infectivity studies were conducted in CEM, H9, MT2 cells and peripheral blood mononuclear cells (PBMC). CEM, H9 and MT2 were grown in RPMI1640 medium, 10% heat-inactivated fetal bovine serum (FBS). PBMCs were stimulated with 4 μg/ml PHA for 48 hours in RPMI1640, 10% FBS before HIV-1 infection. After HIV-1 infection, PBMCs were maintained in RPMI 1640, 10% FBS and 10 10 units/ml IL-2. The major HIV-1 isolates used were MN, IIIB, SF2, AZT-sensitive A018 and AZT-resistant A018 provided by NIH AIDS research and reference reagent program. Two major antiviral assays were developed to determine the antiviral activities of the compounds of this invention (as inhibitors).
I. The cells were infected with HIV-1 RF or IIIB at an infectivity multiplicity (moi) of 0.001 in the absence of a compound of this invention for one hour. HIV-1 infected cells were washed once with PBS, resuspended in RPMI1640, 10% FBS medium and distributed in 24-well culture dishes (5×10^5 cells per well) in the presence of a compound of this invention as inhibitor. […]

## COc1cc(N=Nc2c(S(=O)(=O)O)cc3cc(S(=O)(=O)O)cc(NC(=O)c4ccccc4OC)c3c2O)c(OC)cc1N=Nc1c(S(=O)(=O)O)cc2cc(S(=O)(=O)O)cc(NC(=O)c3ccccc3)c2c1O [Compound 25]
[1]
  LD50 at 168 h: 160 mg/kg
[2]
  Ames Test result: Negative

## COc1cc(N=Nc2c(O)ccc3ccc(S(=O)(=O)O)cc23)c(OC)cc1N=Nc1c(S(=O)(=O)O)cc2cc(S(=O)(=O)O)cc(NC(=O)c3cccc4ccccc34)c2c1O [Compound 38]
[3]; 10% FCS
  inhibition at 1.25 µg/mL: 99%
  inhibition at 2.5 µg/mL: 99%
  inhibition at 5 µg/mL: 100%
[2]
  Ames Test result: Negative

## COc1cc(N=Nc2c(S(=O)(=O)O)cc3cc(S(=O)(=O)O)cc(NC(=O)c4cccc(Cl)c4Cl)c3c2O)c(OC)cc1N=Nc1c(S(=O)(=O)O)cc2cc(S(=O)(=O)O)cc(NC(=O)c3cc(Cl)ccc3Cl)c2c1O [Compound 9]
[1]
  LD50 at 168 h: 150 mg/kg
[3]; 10% FCS
  inhibition at 0.6 µg/mL: 63%
  inhibition at 1.25 µg/mL: 99%
  inhibition at 2.5 µg/mL: 99%
  inhibition at 5 µg/mL: 100%
[3]; 50% Human Serum
  inhibition at 0.6 µg/mL: 0%
  inhibition at 1.25 µg/mL: 0%
  inhibition at 2.5 µg/mL: 16%
  inhibition at 5 µg/mL: 90%
[2]
  Ames Test result: Negative

## COc1cc(N=Nc2c(S(=O)(=O)O)cc3cc(S(=O)(=O)O)cc(NC(=O)c4ccc(C#N)cc4)c3c2O)c(OC)cc1N=Nc1c(S(=O)(=O)O)cc2cc(S(=O)(=O)O)cc(NC(=O)c3ccccc3)c2c1O [Compound 26]
[1]
  LD50 at 168 h: 150 mg/kg
[2]
  Ames Test result: Negative

## COc1cc(N=Nc2c(O)ccc3ccc(S(=O)(=O)O)cc23)c(OC)cc1N=Nc1c(S(=O)(=O)O)cc2cc(S(=O)(=O)O)cc(NC(=O)c3cccc(C(F)(F)F)c3)c2c1O [Compound 36]
[2]
  Ames Test result: Negative

## O=C(Nc1cc(S(=O)(=O)O)cc2cc(S(=O)(=O)O)c(N=Nc3ccc(N=Nc4c(S(=O)(=O)O)cc5cc(S(=O)(=O)O)cc(NC(=O)c6cccc(Cl)c6Cl)c5c4O)c(Cl)c3)c(O)c12)c1ccc(Cl)cc1Cl [Compound 30]
[2]
  Ames Test result: Negative

## Cc1cc(N=Nc2c(S(=O)(=O)O)cc3cc(S(=O)(=O)O)cc(NC(=O)c4cccc(Cl)c4Cl)c3c2O)c(C)cc1N=Nc1c(S(=O)(=O)O)cc2cc(S(=O)(=O)O)cc(NC(=O)c3ccc(Cl)cc3Cl)c2c1O [Compound 31]
[3]; 10% FCS
  inhibition at 1.25 µg/mL: 0%
  inhibition at 2.5 µg/mL: 88%
  inhibition at 5 µg/mL: 100%
[2]
  Ames Test result: Negative

## COc1cc(N=Nc2c(S(=O)(=O)O)cc3cc(S(=O)(=O)O)cc(NC(=O)c4cccc(Cl)c4Cl)c3c2O)c(OC)cc1N=Nc1c(S(=O)(=O)O)cc2cc(S(=O)(=O)O)cc(NC(=O)c3cccc(Cl)c3Cl)c2c1O [Compound 8]
[1]
  LD50 at 168 h: 160 mg/kg
[3]; 10% FCS
  inhibition at 0.6 µg/mL: 87%
  inhibition at 1.25 µg/mL: 99%
  inhibition at 2.5 µg/mL: 99%
  inhibition at 5 µg/mL: 99%
[3]; 50% Human Serum
  inhibition at 1.25 µg/mL: 0%
  inhibition at 2.5 µg/mL: 0%
  inhibition at 5 µg/mL: 95%
[2]
  Ames Test result: Negative

## COc1cc(N=Nc2c(S(=O)(=O)O)cc3cc(S(=O)(=O)O)cc(NC(=O)c4ccc(C)cc4)c3c2O)c(OC)cc1N=Nc1c(S(=O)(=O)O)cc2cc(S(=O)(=O)O)cc(NC(=O)c3ccccc3)c2c1O [Compound 23]
[1]
  LD50 at 168 h: 130 mg/kg
[2]
  Ames Test result: Negative

## COc1cc(N=Nc2c(O)ccc3ccc(S(=O)(=O)O)cc23)c(OC)cc1N=Nc1c(S(=O)(=O)O)cc2cc(S(=O)(=O)O)cc(NC(=O)Cc3cccc4ccccc34)c2c1O [Compound 42]
[3]; 10% FCS
  inhibition at 1.25 µg/mL: 28%
  inhibition at 2.5 µg/mL: 99%
  inhibition at 5 µg/mL: 99%
[2]
  Ames Test result: Negative

## COc1cc(N=Nc2c(O)ccc3ccc(S(=O)(=O)O)cc23)c(OC)cc1N=Nc1c(S(=O)(=O)O)cc2cc(S(=O)(=O)O)cc(NC(=O)c3cccnc3)c2c1O [Compound 40]
[2]
  Ames Test result: Negative

## COc1cc(N=Nc2c(S(=O)(=O)O)cc3cc(S(=O)(=O)O)cc(NC(=O)c4cccc(Cl)c4Cl)c3c2O)c(OC)cc1N=Nc1c(S(=O)(=O)O)cc2cc(S(=O)(=O)O)cc(NC(=O)Cc3ccccc3)c2c1O [Compound 2]
[1]
  LD50 at 168 h: 150 mg/kg
[3]; 10% FCS
  inhibition at 1.25 µg/mL: 60%
  inhibition at 2.5 µg/mL: 73%
  inhibition at 5 µg/mL: 98%
[2]
  Ames Test result: Negative

## COc1cc(N=Nc2c(S(=O)(=O)O)cc3cc(S(=O)(=O)O)cc(NC(=O)c4cccc5ccccc45)c3c2O)c(OC)cc1N=Nc1c(S(=O)(=O)O)cc2cc(S(=O)(=O)O)cc(NC(=O)c3ccc(C(F)(F)F)cc3)c2c1O [Compound 19]
[1]
  LD50 at 168 h: 140 mg/kg
[2]
  Ames Test result: Negative

## COc1cc(N=Nc2c(O)ccc3ccc(S(=O)(=O)O)cc23)c(OC)cc1N=Nc1c(S(=O)(=O)O)cc2cc(S(=O)(=O)O)cc(NC(=O)c3ccc(C#N)cc3)c2c1O [Compound 37]
[2]
  Ames Test result: Negative

## O=C(Nc1cc(S(=O)(=O)O)cc2cc(S(=O)(=O)O)c(N=Nc3ccc(N=Nc4c(O)ccc5ccc(S(=O)(=O)O)cc45)cc3Cl)c(O)c12)c1ccccc1 [Compound 45]
[3]; 10% FCS
  inhibition at 1.25 µg/mL: 92%
  inhibition at 2.5 µg/mL: 99%
  inhibition at 5 µg/mL: 99%

## COc1cc(N=Nc2c(S(=O)(=O)O)cc3cc(S(=O)(=O)O)cc(NC(=O)c4ccccc4)c3c2O)c(OC)cc1N=Nc1c(S(=O)(=O)O)cc2cc(S(=O)(=O)O)cc(NC(=O)Nc3ccc(F)cc3)c2c1O [Compound 24]
[1]
  LD50 at 168 h: 140 mg/kg
[2]
  Ames Test result: Negative

## COc1cc(N=Nc2c(O)ccc3ccc(S(=O)(=O)O)cc23)c(OC)cc1N=Nc1c(S(=O)(=O)O)cc2cc(S(=O)(=O)O)cc(NC(=O)c3ccc4ccccc4c3)c2c1O [Compound 39]
[2]
  Ames Test result: Negative

## O=C(Nc1cc(S(=O)(=O)O)cc2cc(S(=O)(=O)O)c(N=Nc3ccc(N=Nc4c(S(=O)(=O)O)cc5cc(S(=O)(=O)O)cc(NC(=O)c6cccc(Cl)c6Cl)c5c4O)cc3)c(O)c12)c1ccc(Cl)cc1Cl [Compound 29]
[2]
  Ames Test result: Negative

## COc1cc(N=Nc2c(S(=O)(=O)O)cc3cc(S(=O)(=O)O)cc(NC(=O)c4cccc([N+](=O)[O-])c4)c3c2O)c(OC)cc1N=Nc1c(S(=O)(=O)O)cc2cc(S(=O)(=O)O)cc(NC(=O)c3ccccc3)c2c1O [Compound 22]
[1]
  LD50 at 168 h: 140 mg/kg
[2]
  Ames Test result: Positive
  Ames Test, specific mutagenic activity: 0.4 colony no/μg

## COc1cc(N=Nc2c(O)ccc3ccc(S(=O)(=O)O)cc23)c(OC)cc1N=Nc1c(S(=O)(=O)O)cc2cc(S(=O)(=O)O)cc(NC(=O)c3ccc(Cl)cc3Cl)c2c1O [Compound 34]
[2]
  Ames Test result: Negative

## COc1cc(N=Nc2c(O)ccc3ccc(S(=O)(=O)O)cc23)c(OC)cc1N=Nc1c(S(=O)(=O)O)cc2cc(S(=O)(=O)O)cc(NC(=O)COc3ccccc3)c2c1O [Compound 41]
[2]
  Ames Test result: Negative

## CCC(C)(C)c1ccc(OCC(=O)Nc2cc(S(=O)(=O)O)cc3cc(S(=O)(=O)O)c(N=Nc4cc(OC)c(N=Nc5c(O)ccc6ccc(S(=O)(=O)O)cc56)cc4OC)c(O)c23)c(C(C)(C)CC)c1 [Compound 43]
[3]; 10% FCS
  inhibition at 1.25 µg/mL: 0%
  inhibition at 2.5 µg/mL: 0%
  inhibition at 5 µg/mL: 99%
[2]
  Ames Test result: Negative

## COc1cc(N=Nc2c(S(=O)(=O)O)cc3cc(S(=O)(=O)O)cc(NC(=O)c4ccc(Cl)cc4Cl)c3c2O)c(OC)cc1N=Nc1c(S(=O)(=O)O)cc2cc(S(=O)(=O)O)cc(NC(=O)Cc3cccc4ccccc34)c2c1O [Compound 20]
[1]
  LD50 at 168 h: 150 mg/kg
[2]
  Ames Test result: Positive
  Ames Test, specific mutagenic activity: 0.08 colony no/μg
